Measured values as given in ChEMBL document CHEMBL1201862, “PubChem BioAssay data set” (2004).
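Step 1: Grow cells in 96-well plates. Step 2: Expose to compound for 48 hours at 5 concentrations. Step 3: Interpolate endpoints linearly; if unreached, use highest concentration. Here, GI50 denotes the concentration required for 50% inhibition of growth.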 Activity calls are given as the source filed them. Cut-off read from the data, not from the text of the source: active = GI50 up to about 1.1 µM and inactive = higher.

How the values were obtained:
Assay in all cases: inhibition of tumour cell growth, NCI panel, 48 h
786-0 = test system: 786-0
SN12C = test system: SN12C
OVCAR-5 = test system: OVCAR-5
SF-539 = test system: SF-539
SK-OV-3 = test system: SK-OV-3
DMS-114 = test system: DMS-114
HT-29 = test system: HT-29
KM-20L2 = test system: KM-20L2
HCT-116 = test system: HCT-116
SF-268 = test system: SF-268
DLD-1 = test system: DLD-1
COLO 205 = test system: COLO 205
HOP-92 = test system: HOP-92
SF-295 = test system: SF-295
NCI-H226 = test system: NCI-H226
ACHN = test system: ACHN
KM12 = test system: KM12
HCC 2998 = test system: HCC 2998
NCI-H23 = test system: NCI-H23
MOLT-4 = test system: MOLT-4
Malme-3M = test system: Malme-3M
CCRF-CEM = test system: CCRF-CEM
LOX IMVI = test system: LOX IMVI
SK-MEL-28 = test system: SK-MEL-28
IGROV-1 = test system: IGROV-1
SK-MEL-5 = test system: SK-MEL-5
RPMI-8226 = test system: RPMI-8226
SNB-78 = test system: SNB-78
DMS-273 = test system: DMS-273
SNB-19 = test system: SNB-19
UO-31 = test system: UO-31
SNB-75 = test system: SNB-75
U-251 = test system: U-251
A549 = test system: A549
SW-620 = test system: SW-620
OVCAR-4 = test system: OVCAR-4
LXFL 529 = test system: LXFL 529
SK-MEL-2 = test system: SK-MEL-2
OVCAR-8 = test system: OVCAR-8
NCI-H460 = test system: NCI-H460
UACC-257 = test system: UACC-257
HL-60 = test system: HL-60
SR = test system: SR
M19-MEL = test system: M19-MEL
TK-10 = test system: TK-10
A498 = test system: A498
M14 = test system: M14
NCI-H522 = test system: NCI-H522
XF498 = test system: XF498
HOP-62 = test system: HOP-62
HCT-15 = test system: HCT-15
UACC-62 = test system: UACC-62
CAKI-1 = test system: CAKI-1
HOP-18 = test system: HOP-18
K562 = test system: K562
RXF 393 = test system: RXF 393
OVCAR-3 = test system: OVCAR-3
EKVX = test system: EKVX

O=C(CSC(=S)N1CCCCC1)Nc1nc2c(s1)CCCC2
GI50 (786-0): 48.3 µM (inactive) | GI50 (SN12C): 31.3 µM (inactive) | GI50 (OVCAR-5): > 100 µM (inactive) | GI50 (SF-539): 34 µM (inactive) | GI50 (SK-OV-3): > 100 µM (inactive) | GI50 (DMS-114): 53.2 µM (inactive) | GI50 (HT-29): 36.3 µM (inactive) | GI50 (KM-20L2): 46 µM (inactive) | GI50 (HCT-116): 12.1 µM (inactive) | GI50 (SF-268): 20.7 µM (inactive) | GI50 (DLD-1): 26.9 µM (inactive) | GI50 (COLO 205): 33.3 µM (inactive) | GI50 (HOP-92): 39.1 µM (inactive) | GI50 (SF-295): 16.4 µM (inactive) | GI50 (NCI-H226): 43.4 µM (inactive) | GI50 (ACHN): 50 µM (inactive) | GI50 (KM12): 57.4 µM (inactive) | GI50 (HCC 2998): 48.3 µM (inactive) | GI50 (NCI-H23): 36.6 µM (inactive) | GI50 (MOLT-4): 11 µM (inactive) | GI50 (Malme-3M): > 100 µM (inactive) | GI50 (CCRF-CEM): 29.4 µM (inactive) | GI50 (LOX IMVI): 13.8 µM (inactive) | GI50 (SK-MEL-28): 64.7 µM (inactive) | GI50 (IGROV-1): > 100 µM (inactive) | GI50 (SK-MEL-5): 18.5 µM (inactive) | GI50 (RPMI-8226): 33.5 µM (inactive) | GI50 (SNB-78): > 100 µM (inactive) | GI50 (DMS-273): 49.4 µM (inactive) | GI50 (SNB-19): 71.1 µM (inactive) | GI50 (UO-31): 33.7 µM (inactive) | GI50 (SNB-75): > 100 µM (inactive) | GI50 (U-251): 29.2 µM (inactive) | GI50 (A549): 43.6 µM (inactive) | GI50 (SW-620): 40.7 µM (inactive) | GI50 (OVCAR-4): 91.8 µM (inactive) | GI50 (LXFL 529): 32.1 µM (inactive) | GI50 (SK-MEL-2): > 100 µM (inactive) | GI50 (OVCAR-8): 58.1 µM (inactive) | GI50 (NCI-H460): 15.1 µM (inactive) | GI50 (UACC-257): 23.3 µM (inactive) | GI50 (HL-60): 12.1 µM (inactive) | GI50 (SR): 6.4 µM (inactive) | GI50 (M19-MEL): 32.9 µM (inactive) | GI50 (TK-10): 16.4 µM (inactive) | GI50 (A498): > 100 µM (inactive) | GI50 (M14): 66.5 µM (inactive) | GI50 (NCI-H522): 29.5 µM (inactive) | GI50 (XF498): 19.3 µM (inactive) | GI50 (HOP-62): 91.4 µM (inactive) | GI50 (HCT-15): 8.73 µM

N=C(N)N/N=C/c1oc(-c2ccc(S(=O)(=O)O)o2)c(-c2ccc(S(=O)(=O)O)o2)c1[N+](=O)[O-]
GI50 (786-0): > 100 µM (inactive) | GI50 (SN12C): > 100 µM (inactive) | GI50 (OVCAR-5): > 100 µM (inactive) | GI50 (SF-539): > 100 µM (inactive) | GI50 (SK-OV-3): > 100 µM (inactive) | GI50 (DMS-114): > 100 µM (inactive) | GI50 (HT-29): > 100 µM (inactive) | GI50 (KM-20L2): > 100 µM (inactive) | GI50 (HCT-116): > 100 µM (inactive) | GI50 (SF-268): > 100 µM (inactive) | GI50 (DLD-1): > 100 µM (inactive) | GI50 (COLO 205): > 100 µM (inactive) | GI50 (UACC-62): > 100 µM (inactive) | GI50 (HOP-92): > 100 µM (inactive) | GI50 (CAKI-1): > 100 µM (inactive) | GI50 (SF-295): > 100 µM (inactive) | GI50 (NCI-H226): > 100 µM (inactive) | GI50 (ACHN): > 100 µM (inactive) | GI50 (KM12): > 100 µM (inactive) | GI50 (HCC 2998): > 100 µM (inactive) | GI50 (NCI-H23): > 100 µM (inactive) | GI50 (MOLT-4): > 100 µM (inactive) | GI50 (Malme-3M): > 100 µM (inactive) | GI50 (CCRF-CEM): > 100 µM (inactive) | GI50 (LOX IMVI): > 100 µM (inactive) | GI50 (SK-MEL-28): > 100 µM (inactive) | GI50 (IGROV-1): > 100 µM (inactive) | GI50 (SK-MEL-5): > 100 µM (inactive) | GI50 (DMS-273): > 100 µM (inactive) | GI50 (SNB-19): > 100 µM (inactive) | GI50 (UO-31): > 100 µM (inactive) | GI50 (SNB-75): > 100 µM (inactive) | GI50 (U-251): > 100 µM (inactive) | GI50 (HOP-18): > 100 µM (inactive) | GI50 (A549): > 100 µM (inactive) | GI50 (SW-620): > 100 µM (inactive) | GI50 (OVCAR-4): > 100 µM (inactive) | GI50 (LXFL 529): > 100 µM (inactive) | GI50 (SK-MEL-2): > 100 µM (inactive) | GI50 (OVCAR-8): > 100 µM (inactive) | GI50 (K562): > 100 µM (inactive) | GI50 (NCI-H460): > 100 µM (inactive) | GI50 (UACC-257): > 100 µM (inactive) | GI50 (HL-60): > 100 µM (inactive) | GI50 (SR): > 100 µM (inactive) | GI50 (M19-MEL): > 100 µM (inactive) | GI50 (TK-10): > 100 µM (inactive) | GI50 (A498): > 100 µM (inactive) | GI50 (RXF 393): > 100 µM (inactive) | GI50 (M14): > 100 µM (inactive) | GI50 (NCI-H522): > 100 µM (inactive) | GI50 (OVCAR-3): > 100 µM (inactive) | GI50 (EKVX): > 100 µM (inactive) | GI50 (HOP-62): > 100 µM (inactive) | GI50 (HCT-15): > 100 µM

CO[C@H]1ON=C(c2c(C)cc(C)cc2C)[C@@H]1C1(c2ccccc2)ON=C(c2c(C)cc(C)cc2C)O1 (stereo partly specified)
GI50 (SN12C): > 100 µM (inactive) | GI50 (OVCAR-5): > 100 µM (inactive) | GI50 (SF-539): > 100 µM (inactive) | GI50 (SK-OV-3): > 100 µM (inactive) | GI50 (KM-20L2): > 100 µM (inactive) | GI50 (HCT-116): > 100 µM (inactive) | GI50 (SF-268): > 100 µM (inactive) | GI50 (DLD-1): > 100 µM (inactive) | GI50 (COLO 205): > 100 µM (inactive) | GI50 (UACC-62): > 100 µM (inactive) | GI50 (HOP-92): > 100 µM (inactive) | GI50 (SF-295): > 100 µM (inactive) | GI50 (ACHN): > 100 µM (inactive) | GI50 (KM12): > 100 µM (inactive) | GI50 (HCC 2998): > 100 µM (inactive) | GI50 (NCI-H23): > 100 µM (inactive) | GI50 (MOLT-4): 87.1 µM (inactive) | GI50 (Malme-3M): > 100 µM (inactive) | GI50 (CCRF-CEM): > 100 µM (inactive) | GI50 (LOX IMVI): > 100 µM (inactive) | GI50 (SK-MEL-28): > 100 µM (inactive) | GI50 (IGROV-1): > 100 µM (inactive) | GI50 (RPMI-8226): 37.8 µM (inactive) | GI50 (SNB-78): > 100 µM (inactive) | GI50 (DMS-273): > 100 µM (inactive) | GI50 (SNB-19): > 100 µM (inactive) | GI50 (UO-31): > 100 µM (inactive) | GI50 (U-251): > 100 µM (inactive) | GI50 (HOP-18): > 100 µM (inactive) | GI50 (A549): > 100 µM (inactive) | GI50 (SW-620): > 100 µM (inactive) | GI50 (LXFL 529): > 100 µM (inactive) | GI50 (SK-MEL-2): > 100 µM (inactive) | GI50 (OVCAR-8): > 100 µM (inactive) | GI50 (K562): > 100 µM (inactive) | GI50 (NCI-H460): > 100 µM (inactive) | GI50 (UACC-257): > 100 µM (inactive) | GI50 (HL-60): 46.3 µM (inactive) | GI50 (SR): > 100 µM (inactive) | GI50 (M19-MEL): > 100 µM (inactive) | GI50 (TK-10): > 100 µM (inactive) | GI50 (RXF 393): > 100 µM (inactive) | GI50 (NCI-H522): > 100 µM (inactive) | GI50 (EKVX): > 100 µM (inactive) | GI50 (HCT-15): > 10 µM
